“And” between values parts separate entries of the source, which are not always exact repeats. Equal entries are not always repeated. Where two headings read alike, the source gives them in different places.

As a reminder, the EC50 is the midpoint of the concentration-response curve. Low readings indicate higher potency in that assay, high ones lower potency in that assay. A word on the CC50: it is the concentration at which the toxic effect on the cells reaches its halfway point. A higher CC50 goes with lower toxicity to the cells.

One data set relates to CEN of orthobunyaviruses. Further details: method as in PMID 32766680, PMID 38656310. The following applies: cited from earlier work.
Data set [1] has as its system LACV. Description: microbe, parasite or virus in culture. In kind it is cell-based, La Crosse virus.
The test system of data set [2] is LACV. Description: microbe, parasite or virus in culture. In kind it is cell-based, La Crosse virus. The source holds these as a separate data set.
Data set [3] in a line: Cell viability assay (MTT), uninfected Vero cells. Format: cell-based. The note with it: African green monkey, mean ± SD. As for the experimental part: (§1) CPE-based antiviral activity and cell viability assays were conducted as previously reported ([23]), with several modifications. Vero and SH-SY5Y cells were treated with serially diluted compounds in minimum essential medium (MEM) containing 2% FBS. In the antiviral evaluation, the cells were infected with LACV (40–80 plaque-forming unit [PFU]/well for Vero and 300–4,000 PFU/well for SH-SY5Y cells). In the cell viability assays, the cells treated with the compounds were cultured in the absence of viral infection. After 2 or 3 days of culture, the cells were stained with 3-(4,5-dimethylthiazol-2-yl)-2,5-diphenyltetrazolium bromide (MTT). The antiviral activity (50% effective concentration values, EC50) was calculated using Prism version 9.5.1 (GraphPad, La Jolla, CA, USA) using the four-parameter logistic method. Non-infected and non-treated cells were defined as the 100% inhibition control, while LACV-infected and non-treated cells were defined as the 0% inhibition control. Cell viability (50% cytotoxicity concentration values, CC50) was calculated using the MTT assay. Non-treated control cells were defined as the 100% cell viability control, while wells containing culture medium without cells were defined as the 0% cell viability control. Selective Index (SI50) was calculated as the ratio of CC50 to EC50 (CC50/EC50).

Data set [4] can be described thus: Cell viability assay (MTT), uninfected SH-SY5Y cells. In kind it is cell-based. The note with it: human, MTT at 3 dpi, mean ± SD. How it is done: as §1
Data set [5] has as its system LACV passage control WT. Description: microbe, parasite or virus in culture. Format: cell-based. The note with it: La Crosse virus, Vero.
The test system of data set [6] is LACV passage control WT. Description: microbe, parasite or virus in culture. Format: cell-based. The note with it: La Crosse virus, SH-SY5Y.
Data set [7] deals with LACV. Format: cell-based, La Crosse virus.
The format of data set [8] is in vivo. The note with it: uninfected mice; s.c. once daily for 7 days.
The subject of data set [9] is Bunyaviruses, including LACV. Further details: method as in PMID 36037386. The note with it: cited from earlier work.

For the compound `O=C1c2c(O)c(=O)ccn2N([C@@H]2c3ccccc3SCc3c2ccc(F)c3F)[C@@H]2COCCN12` [BXA, baloxavir acid], the “Binding to CEN and inhibition of enzymatic activity” value in the data set with CEN of orthobunyaviruses is “binds to the CEN of orthobunyaviruses and inhibits its enzymatic activity”.
As to `CC(C)N1CN(C2c3ccccc3CCc3ccccc32)n2cc(C(=O)O)c(=O)c(O)c2C1=O` [CAPCA-1, carbamoyl pyridone carboxylic acid (CAPCA)-1], the “EC50 lower than for T-705 and RBV” value in the data set on LACV [1] is “more than 50 fold”. Also, the “Inhibition of LACV-induced cell death compared with other CEN inhibitors” value in the data set with LACV [1] was “inhibited LACV-induced cell death at lower concentrations than the other CEN inhibitors”. The “Antiviral activity compared with other CEN inhibitors” value in the data set on LACV [2] was “antiviral activity comparable to that of CAPCA-4 and demonstrated higher activity than CAPCA-2, -3, and -5”. For the same compound, the EC50 in the data set on LACV [2] is 0.69 µM and 0.95 µM; in the data set on LACV [2] (La Crosse virus, SH-SY5Y) it was below 1 µM; in the data set on LACV passage control WT [5], 0.79 ± 0.39 µM; with LACV passage control WT [6] it was 0.65 ± 0.05 µM. This compound also yielded a CC50 in data set [3] above 50 µM. The CC50 at 3 days in data set [4] was above 50 µM. Also, the “Viral RNA expression, entry-stage treatment” value with LACV [7] was “no inhibitory effect”. Moreover, the “Body weight changes versus vehicle-treated mice” value in [8] is recorded as “No significant differences in body weight changes”. Besides, in data set [9], the “Susceptibility of bunyaviruses among the four CEN inhibitors” value is “most susceptible to CAPCA-1”.
On to `NC(=O)c1ncn([C@@H]2O[C@H](CO)[C@@H](O)[C@H]2O)n1` [RBV, Ribavirin, reference compound], for which the half-maximal effective concentration (EC50) with LACV [1] (La Crosse virus, Vero) is above 100 µM; in the data set on LACV [2] (La Crosse virus, SH-SY5Y), above 100 µM. Moreover, half-maximal cytotoxicity in data set [3] (CC50) was put at 82.1 ± 28.4 µM. In [4], this compound displayed a CC50 at 3 days of 121 ± 7.61 µM.
Take `NC(=O)c1nc(F)c[nH]c1=O` [T-705, favipiravir, reference compound]: the EC50 was 37.8 ± 3.96 µM in the data set on LACV [1]; 33.9 ± 5.29 µM in the data set on LACV [1] (La Crosse virus, Vero); above 100 µM with LACV [2] (La Crosse virus, SH-SY5Y); 43.8 ± 11.5 µM with LACV passage control WT [5]. Besides, in data set [3], the CC50 was found to be 117 ± 24.7 µM. This compound displayed a CC50 at 3 days in data set [4] above 200 µM. Besides, in the data set with LACV [7], the “Viral RNA expression, entry-stage treatment” value is “no inhibitory effect”.

Values taken from PMC12406681 (Antimicrobial Agents and Chemotherapy, 2025).
